Experimental data reported in US20170190671A1, “BIS(ARYL)CATECHOL DERIVATIVES AS HERBICIDES” (E I DU PONT DE NEMOURS AND COMPANY, priority 2014, published 2017).

Key:
Assay in all cases: Test D preemergence
Format in all cases: in vivo
Settings in all cases: scale 0 to 100
[1] = system: Italian ryegrass (Lolium multiflorum)
In short: (§1)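 Assessment is visual, relative to untreated controls, 14 to 21 days after application, with 100 meaning complete control. Seeds in silt loam receive preemergence spray; seedlings at the 1- to 4-leaf stage receive postemergence spray.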

[2] = system: Russian thistle (Salsola kali)
In short: as §1

[3] = system: blackgrass (Alopecurus myosuroides)
In short: as §1

[4] = system: chamomile (scentless chamomile, Matricaria inodora)
In short: as §1

[5] = system: chickweed (common chickweed, Stellaria media)
In short: as §1

[6] = system: cutleaf geranium (Geranium dissectum)
In short: as §1

[7] = system: deadnettle (henbit deadnettle, Lamium amplexicaule)
In short: as §1

[8] = system: downy bromegrass (Bromus tectorum)
In short: as §1

[9] = system: field poppy (Papaver rhoeas)
In short: as §1

[10] = system: field violet (Viola arvensis)
In short: as §1

[11] = system: galium (catchweed bedstraw, Galium aparine)
In short: as §1

[12] = system: green foxtail (Setaria viridis)
In short: as §1

[13] = system: lambsquarters (Chenopodium album)
In short: as §1

[14] = system: speedwell (bird's-eye speedwell, Veronica persica)
In short: as §1

[15] = system: spring barley (Hordeum vulgare)
In short: as §1

[16] = system: wild buckwheat (Polygonum convolvulus)
In short: as §1

[17] = system: wild mustard (Sinapis arvensis)
In short: as §1

[18] = system: wild radish (Raphanus raphanistrum)
In short: as §1

[19] = system: windgrass (Apera spica-venti)
In short: as §1

[20] = system: winter barley (Hordeum vulgare)
In short: as §1

[21] = system: winter wheat (Triticum aestivum)
In short: as §1

FC(F)(F)c1cnc(Oc2c(Br)cccc2Oc2ncc(Cl)cn2)nc1 [Compound 24]
10: Plant response rating, Ryegrass, Italian ([1]; 16 g ai/ha) | Plant response rating, Chickweed ([5]; 16 g ai/ha) | Plant response rating, Foxtail, Green ([12]; 16 g ai/ha) | Plant response rating, Buckwheat, Wild ([16]; 16 g ai/ha) | Plant response rating, Barley, Winter ([20]; 16 g ai/ha) | Plant response rating, Wheat, Winter ([21]; 125 g ai/ha)
20: Plant response rating, Bromegrass, Downy ([8]; 16 g ai/ha) | Plant response rating, Field Violet ([10]; 16 g ai/ha) | Plant response rating, Field Violet ([10]; 31 g ai/ha) | Plant response rating, Barley, Spring ([15]; 31 g ai/ha) | Plant response rating, Buckwheat, Wild ([16]; 62 g ai/ha) | Plant response rating, Radish, Wild ([18]; 31 g ai/ha)
0: Plant response rating, Russian Thistle ([2]; 16 g ai/ha) | Plant response rating, Russian Thistle ([2]; 31 g ai/ha) | Plant response rating, Galium ([11]; 16 g ai/ha) | Plant response rating, Barley, Spring ([15]; 16 g ai/ha) | Plant response rating, Radish, Wild ([18]; 16 g ai/ha) | Plant response rating, Wheat, Winter ([21]; 16 g ai/ha) | Plant response rating, Wheat, Winter ([21]; 31 g ai/ha) | Plant response rating, Wheat, Winter ([21]; 62 g ai/ha)
80: Plant response rating, Russian Thistle ([2]; 125 g ai/ha)
45: Plant response rating, Bromegrass, Downy ([8]; 125 g ai/ha) | Plant response rating, Radish, Wild ([18]; 62 g ai/ha)
85: Plant response rating, Galium ([11]; 62 g ai/ha) | Plant response rating, Foxtail, Green ([12]; 125 g ai/ha) | Plant response rating, Barley, Spring ([15]; 125 g ai/ha) | Plant response rating, Windgrass ([19]; 125 g ai/ha)
25: Plant response rating, Ryegrass, Italian ([1]; 62 g ai/ha) | Plant response rating, Blackgrass ([3]; 31 g ai/ha) | Plant response rating, Galium ([11]; 31 g ai/ha) | Plant response rating, Windgrass ([19]; 62 g ai/ha) | Plant response rating, Barley, Winter ([20]; 62 g ai/ha)
35: Plant response rating, Russian Thistle ([2]; 62 g ai/ha) | Plant response rating, Blackgrass ([3]; 62 g ai/ha) | Plant response rating, Bromegrass, Downy ([8]; 31 g ai/ha) | Plant response rating, Bromegrass, Downy ([8]; 62 g ai/ha) | Plant response rating, Foxtail, Green ([12]; 31 g ai/ha) | Plant response rating, Speedwell ([14]; 16 g ai/ha) | Plant response rating, Mustard, Wild ([17]; 31 g ai/ha)
60: Plant response rating, Deadnettle ([7]; 31 g ai/ha)
75: Plant response rating, Geranium, Cutleaf ([6]; 16 g ai/ha) | Plant response rating, Geranium, Cutleaf ([6]; 31 g ai/ha) | Plant response rating, Field Poppy ([9]; 16 g ai/ha) | Plant response rating, Field Violet ([10]; 62 g ai/ha) | Plant response rating, Foxtail, Green ([12]; 62 g ai/ha)
90: Plant response rating, Geranium, Cutleaf ([6]; 62 g ai/ha)
65: Plant response rating, Ryegrass, Italian ([1]; 125 g ai/ha)
15: Plant response rating, Ryegrass, Italian ([1]; 31 g ai/ha) | Plant response rating, Blackgrass ([3]; 16 g ai/ha) | Plant response rating, Mustard, Wild ([17]; 16 g ai/ha) | Plant response rating, Windgrass ([19]; 31 g ai/ha) | Plant response rating, Barley, Winter ([20]; 31 g ai/ha)
55: Plant response rating, Blackgrass ([3]; 125 g ai/ha) | Plant response rating, Chamomile ([4]; 16 g ai/ha) | Plant response rating, Mustard, Wild ([17]; 62 g ai/ha)
5: Plant response rating, Windgrass ([19]; 16 g ai/ha)
70: Plant response rating, Galium ([11]; 125 g ai/ha) | Plant response rating, Radish, Wild ([18]; 125 g ai/ha) | Plant response rating, Barley, Winter ([20]; 125 g ai/ha)
30: Plant response rating, Deadnettle ([7]; 16 g ai/ha) | Plant response rating, Barley, Spring ([15]; 62 g ai/ha)
100: Plant response rating, Chamomile ([4]; 31 g ai/ha) | Plant response rating, Chamomile ([4]; 62 g ai/ha) | Plant response rating, Chamomile ([4]; 125 g ai/ha) | Plant response rating, Chickweed ([5]; 31 g ai/ha) | Plant response rating, Chickweed ([5]; 62 g ai/ha) | Plant response rating, Chickweed ([5]; 125 g ai/ha) | Plant response rating, Geranium, Cutleaf ([6]; 125 g ai/ha) | Plant response rating, Deadnettle ([7]; 62 g ai/ha) | Plant response rating, Deadnettle ([7]; 125 g ai/ha) | Plant response rating, Field Poppy ([9]; 31 g ai/ha) | Plant response rating, Field Poppy ([9]; 62 g ai/ha) | Plant response rating, Field Poppy ([9]; 125 g ai/ha) | Plant response rating, Field Violet ([10]; 125 g ai/ha) | Plant response rating, Lambsquarters ([13]; 16 g ai/ha) | Plant response rating, Lambsquarters ([13]; 31 g ai/ha) | Plant response rating, Lambsquarters ([13]; 62 g ai/ha) | Plant response rating, Lambsquarters ([13]; 125 g ai/ha) | Plant response rating, Speedwell ([14]; 31 g ai/ha) | Plant response rating, Speedwell ([14]; 62 g ai/ha) | Plant response rating, Speedwell ([14]; 125 g ai/ha) | Plant response rating, Buckwheat, Wild ([16]; 125 g ai/ha) | Plant response rating, Mustard, Wild ([17]; 125 g ai/ha)
